In brackets after ≈: the same amount, converted by molar mass.
Columns and labels:
Format in all cases: functional
[1] = tested on: Staphylococcus epidermidis; assay: Antimicrobial activity against Staphylococcus epidermidis ATCC 12228 assessed as >99.9 % reduction in CFU after 18 hrs by broth microdilution method; conditions: ATCC 12228, 18 h
[2] = tested on: Escherichia coli; assay: Antimicrobial activity against Escherichia coli ATCC 25922 after 18 hrs by broth microdilution method; conditions: ATCC 25922, 18 h
[3] = tested on: Staphylococcus aureus; assay: Antimicrobial activity against Staphylococcus aureus ATCC 25923 after 18 hrs by broth microdilution method; conditions: ATCC 25923, 18 h
[4] = tested on: Bacillus cereus; assay: Antimicrobial activity against Bacillus cereus ATCC 10876 after 18 hrs by broth microdilution method; conditions: ATCC 10876, 18 h
[5] = tested on: Bacillus subtilis; assay: Antimicrobial activity against Bacillus subtilis ATCC […] after 18 hrs by broth microdilution method
[6] = tested on: Staphylococcus epidermidis; assay: Antimicrobial activity against Staphylococcus epidermidis ATCC 12228 after 18 hrs by broth microdilution method; conditions: ATCC 12228, 18 h
[7] = tested on: Staphylococcus aureus; assay: Antimicrobial activity against Staphylococcus aureus ATCC 25923 assessed as >99.9 % reduction in CFU after 18 hrs by broth microdilution method; conditions: ATCC 25923, 18 h
[8] = tested on: Bacillus cereus; assay: Antimicrobial activity against Bacillus cereus ATCC 10876 assessed as >99.9 % reduction in CFU after 18 hrs by broth microdilution method; conditions: ATCC 10876, 18 h
[9] = tested on: Klebsiella pneumoniae; assay: Antimicrobial activity against Klebsiella pneumoniae ATCC 13883 after 18 hrs by broth microdilution method; conditions: ATCC 13883, 18 h
[10] = tested on: Micrococcus luteus; assay: Antimicrobial activity against Micrococcus luteus ATCC 10240 assessed as >99.9 % reduction in CFU after 18 hrs by broth microdilution method; conditions: ATCC 10240, 18 h
[11] = tested on: Escherichia coli; assay: Antimicrobial activity against Escherichia coli ATCC 25922 assessed as >99.9 % reduction in CFU after 18 hrs by broth microdilution method; conditions: ATCC 25922, 18 h
[12] = tested on: Staphylococcus aureus; assay: Antimicrobial activity against Staphylococcus aureus ATCC 6538 after 18 hrs by broth microdilution method; conditions: ATCC 6538, 18 h
[13] = tested on: Bacillus subtilis; assay: Antimicrobial activity against Bacillus subtilis ATCC […] assessed as >99.9 % reduction in CFU after 18 hrs by broth microdilution method
[14] = tested on: Micrococcus luteus; assay: Antimicrobial activity against Micrococcus luteus ATCC 10240 after 18 hrs by broth microdilution method; conditions: ATCC 10240, 18 h
[15] = tested on: Proteus mirabilis; assay: Antimicrobial activity against Proteus mirabilis ATCC 12453 after 18 hrs by broth microdilution method; conditions: ATCC 12453, 18 h
[16] = tested on: Staphylococcus aureus; assay: Antimicrobial activity against Staphylococcus aureus ATCC 6538 assessed as >99.9 % reduction in CFU after 18 hrs by broth microdilution method; conditions: ATCC 6538, 18 h
[17] = tested on: Klebsiella pneumoniae; assay: Antimicrobial activity against Klebsiella pneumoniae ATCC 13883 assessed as >99.9 % reduction in CFU after 18 hrs by broth microdilution method; conditions: ATCC 13883, 18 h, read-out: MBC
[18] = tested on: Proteus mirabilis; assay: Antimicrobial activity against Proteus mirabilis ATCC 12453 assessed as >99.9 % reduction in CFU after 18 hrs by broth microdilution method; conditions: ATCC 12453, 18 h

MIC [2] [µg/mL]	MIC [3] [µg/mL]	MIC [4] [µg/mL]	MIC [5] [µg/mL]	MIC [6] [µg/mL]	MIC [9] [µg/mL]	MIC [12] [µg/mL]	MIC [14] [µg/mL]	MIC ([15]; read-out: MIC) [µg/mL]	MIC [15] [µg/mL]	Compound	MBC [1] [µg/mL]	MBC [7] [µg/mL]	MBC [8] [µg/mL]	MBC [10] [µg/mL]	MBC [11] [µg/mL]	MBC [13] [µg/mL]	MBC [16] [µg/mL]	MBC [17] [µg/mL]	MBC ([18]; read-out: MBC) [µg/mL]	MBC [18] [µg/mL]
> 1000	250 (≈ 556 µM)	> 1000	> 1000	500 (≈ 1110 µM)	> 1000	250 (≈ 556 µM)	500 (≈ 1110 µM)	> 1000	–	S=c1n(CN2CCCC2)nc(-c2cccc(Cl)c2)n1-c1ccccc1Br	> 1000	> 1000	> 1000	> 1000	> 1000	> 1000	> 1000	> 1000	> 1000	–
500 (≈ 1230 µM)	125 (≈ 307 µM)	125 (≈ 307 µM)	125 (≈ 307 µM)	125 (≈ 307 µM)	250 (≈ 614 µM)	125 (≈ 307 µM)	125 (≈ 307 µM)	–	500 (≈ 1230 µM)	Fc1ccc(F)c(-n2c(-c3cccc(Cl)c3)nn(CN3CCCC3)c2=S)c1	1000 (≈ 2460 µM)	500 (≈ 1230 µM)	> 1000	1000 (≈ 2460 µM)	> 1000	1000 (≈ 2460 µM)	500 (≈ 1230 µM)	> 1000	–	> 1000
> 1000	125 (≈ 252 µM)	125 (≈ 252 µM)	125 (≈ 252 µM)	250 (≈ 503 µM)	1000 (≈ 2010 µM)	250 (≈ 503 µM)	125 (≈ 252 µM)	> 1000	–	S=c1n(CN2CCCC2)nc(-c2cccc(Cl)c2)n1-c1ccc(I)cc1	> 1000	1000 (≈ 2010 µM)	> 1000	> 1000	> 1000	1000 (≈ 2010 µM)	1000 (≈ 2010 µM)	> 1000	> 1000	–
500 (≈ 1350 µM)	125 (≈ 337 µM)	125 (≈ 337 µM)	125 (≈ 337 µM)	125 (≈ 337 µM)	250 (≈ 674 µM)	125 (≈ 337 µM)	125 (≈ 337 µM)	500 (≈ 1350 µM)	–	S=c1n(CN2CCCC2)nc(-c2cccc(Cl)c2)n1-c1ccccc1	1000 (≈ 2700 µM)	500 (≈ 1350 µM)	> 1000	1000 (≈ 2700 µM)	500 (≈ 1350 µM)	500 (≈ 1350 µM)	500 (≈ 1350 µM)	500 (≈ 1350 µM)	> 1000	–

Source: ChEMBL document CHEMBL1649393, “Synthesis and antimicrobial activity of thiosemicarbazides, s-triazoles and their Mannich bases bearing 3-chlorophenyl moiety” (2011)
